The data set in a line: gradient 5% acetonitrile 3 min, to 50% in 2 min, to 85% in 15 min, held 3 min, 100 µL/min. The note with it: column: Zorbax Extend-C18 2.1 x 50 mm; eluents: water / acetonitrile, 0.1% formic acid. Put shortly: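 Over 3 months, pure standards in mixtures of ~100 molecules were run by HPLC coupled to a quadrupole time-of-flight mass spectrometer in positive and negative ionization mode. The column was a Zorbax Extend-C18 (2.1 × 50 mm, 1.8 μm) at 100 μL/min, eluted with water and acetonitrile each holding 0.1% formic acid, with 40 μL dead and 900 μL dwell volumes. Retention time was determined from adduct peaks chosen by software and checked manually.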
Take `O=C(CN1C(=O)C(C(=O)N2CCCC2)Sc2ccccc21)NC1CCN(Cc2ccccc2)CC1` (stereo not given): the RP-LC retention time was 663 s.

`CC(C)(C)NC(=O)N1CCC(N2CC3(CCCCC3)C2c2ccncc2)CC1` (stereo not given) returned an RP-LC retention time of 611 s.

For `Cc1c(F)cccc1NC(=O)N(C)CC1CCOCC1`, the RP-LC retention time amounted to 742 s.

Consider `O=C(Cc1ccsc1)Nc1cccn2ncnc12`, for which the RP-LC retention time worked out at 699 s.

`COC(=O)[C@H](CC1C=NC=N1)NCC12CC3CC(CC(C3)C1)C2` (stereo not given in full) registered an RP-LC retention time of 607 s.

`FC(F)(F)c1cccc(-c2noc(Cc3nnc(-c4ccccc4)o3)n2)c1`: the RP-LC retention time was 1080 s.

In the case of `O=C(CCc1nc2cccnc2n1-c1ccccc1)NCCc1c[nH]c2ccccc12`, the RP-LC retention time worked out at 706 s.

Take `Cc1ccc(NC(=O)Cn2nc(N3CCCC(C)C3)c3ccccc3c2=O)c(F)c1` (stereo not given): the RP-LC retention time came to 1110 s.

`CCCN1CCN(C(=O)CC2Sc3ncccc3N(C)C2=O)CC1` (stereo not given) came in with an RP-LC retention time of 576 s.

Regarding `CC1=C(c2ccc(C)c(C)c2)S(=O)(=O)N=C1N1CCCN(C(=O)c2ccco2)CC1`, the RP-LC retention time was found to be 836 s.

`CCCNC(=O)C1Cc2cc(S(=O)(=O)N3CCCCCC3)ccc2N1C(C)=O` (stereo not given): the RP-LC retention time stood at 744 s.

`COc1ccc(NC(=O)C(C)C2CCN(C(=O)Nc3ccccc3)CC2)c(OC)c1` (stereo not given) had an RP-LC retention time of 810 s.

Compound `O=C(Nc1nc2ccccc2s1)C1CCN(C(=O)c2cccc(F)c2)CC1` returned an RP-LC retention time of 821 s.

In the case of `COc1ccc(NC(=O)c2ccc3nc(-c4ccccc4)cn3c2)c(OC)c1`, the RP-LC retention time turned out to be 722 s.

As for `COc1ccc(OC)c(NS(=O)(=O)c2c(C)nn(-c3ccc(-c4ccc(C)cc4)nn3)c2C)c1`, the RP-LC retention time turned out to be 1110 s.

Turning to `O=C(Nc1nccs1)C1CCCN(S(=O)(=O)c2c[nH]c(C(=O)N3CCCC3)c2)C1` (stereo not given), the RP-LC retention time is 688 s.

`Cc1ccc2[nH]c(=O)c(CCC(=O)NCCN3CCc4ccccc4C3)cc2c1` came in with an RP-LC retention time of 634 s.

The compound `CCc1noc(NC(C)=O)c1-c1ccc(OC)c(S(=O)(=O)NC2CC2)c1` yielded an RP-LC retention time of 679 s.

`COc1ccc(NC(=O)N2C[C@@H](F)C[C@H]2C(=O)N2CCc3ccccc3C2)cc1` gave an RP-LC retention time of 763 s.

Compound `Cc1cnc(C2CN(Cc3ccc(C(F)(F)F)cc3)C2)n1Cc1ccccc1` came in with an RP-LC retention time of 639 s.

Regarding `COC(=O)c1cc2ccsc2n1Cc1ccccc1C#N`, the RP-LC retention time was 1030 s.

Regarding `COc1ccc(NC(=O)C2CCCN(c3nnc4ccccn34)C2)cc1` (stereo not given), the RP-LC retention time is 637 s.

For `COc1ccccc1-c1nc(-c2ccc(S(=O)(=O)N3CCC(C(=O)N4CCCC4)CC3)cc2)no1`, the RP-LC retention time is 952 s.

As for `O=C(c1cccnc1)N1CCN(c2cc(-c3cccs3)[nH]n2)CC1`, the RP-LC retention time stood at 616 s.

`CCOC(=O)c1sc(NC(=O)CN2C(=O)c3ccccc3C2=O)c(SC#N)c1C` yielded an RP-LC retention time of 912 s.

For `CN(C(=O)C1CCN(S(=O)(=O)c2cc(C(=O)N3CCCCCC3)cs2)CC1)C1CCCCC1`, the RP-LC retention time was determined as 975 s.

On to `Cc1ccc(-c2nnc(Cc3nc(-c4ccc(F)cc4)no3)o2)cc1`, for which the RP-LC retention time was found to be 1050 s.

`Cc1ccc(Cn2c(CN3CCC(C(=O)N4CCCC4)CC3)cc3ccccc32)cc1` came in with an RP-LC retention time of 750 s.

The compound `O=C(NCCCN1CCC(N2CCCCC2)CC1)c1ccc2c(c1)NC(=O)C1CCCCN21` (stereo not given) displayed an RP-LC retention time of 537 s.

Consider `COc1ccc(CC(=O)Nc2ccc(-c3nc(Cn4nc(C)cc4C)c(C)o3)cc2)cc1`, for which the RP-LC retention time stood at 903 s.

For `CC(NC(=O)C1CCN(c2cncnc2N2CCCCC2)CC1)c1ccc(F)cc1` (stereo not given), the RP-LC retention time was 715 s.

`Cc1ccc(-c2noc(CN3N=NC4C(=O)N(c5ccccc5)C(=O)C43)n2)cc1C` (stereo not given) came in with an RP-LC retention time of 1020 s.

In the case of `COc1ccc(C(=O)N2CCN(c3cc(-c4cccs4)[nH]n3)CC2)cc1OC`, the RP-LC retention time stood at 741 s.

As to `Cc1ccc(C(=O)NCCc2nc3cccnc3n2C)c(C)c1`, the RP-LC retention time was found to be 623 s.

For the compound `c1ccc(-c2noc(-c3ccccc3OC3CCNC3)n2)cc1` (stereo not given), the RP-LC retention time worked out at 684 s.

In turn, `Cc1oc2ncnc(N3CCCCC3)c2c1C(=O)N1CCN(c2ccccn2)CC1` returned an RP-LC retention time of 591 s.

In turn, `CCOC(=O)N1CCN(C(=O)C2CN(C(=O)c3c[nH]c4ccccc34)C2)CC1` had an RP-LC retention time of 633 s.

For the compound `Cc1ccc(-n2nc(N3CCCC(C(=O)NC4CCCCCCC4)C3)ccc2=O)cc1Cl` (stereo not given), the RP-LC retention time was 1110 s.

The compound `Cc1[nH]nc(-c2ccc(S(=O)(=O)NC3CC3)o2)c1C` displayed an RP-LC retention time of 723 s.

Regarding `COc1cccc(Cn2c(C)c(CNCc3ccccn3)c(C(=O)O)c2C)c1`, the RP-LC retention time was found to be 676 s.

Compound `CC(C)=C(c1ccc(Cl)cc1)c1c(N)ncnc1N` came in with an RP-LC retention time of 705 s.

The compound `COc1ccc(C2(C(=O)N3CCC(c4nc(-c5cccn5C)no4)C3)CC2)cc1` (stereo not given) showed an RP-LC retention time of 910 s.

For `O=C1CCC(C(=O)N2CCC(c3c[nH]c4ccccc34)(c3c[nH]c4ccccc34)CC2)N1` (stereo not given), the RP-LC retention time was 711 s.

The compound `Cc1nc(-c2ccc(-c3noc(CNC(=O)Cc4ccccc4)n3)cc2)cs1` displayed an RP-LC retention time of 903 s.

`COc1ccc(C(=O)N2CCC3(CC2)NC(=O)c2cc(F)ccc2N3C)cc1`: the RP-LC retention time stood at 730 s.

In turn, `COc1ccc(-c2nc(CN3CCCC3=O)no2)cc1` returned an RP-LC retention time of 735 s.

The compound `Cc1cc(NC(=O)c2sc(-c3cn(C)c4ncccc34)nc2C)ccc1F` came in with an RP-LC retention time of 979 s.

On to `CCN1CCC(N(Cc2cccs2)C(=O)Nc2ccc(C)cc2)CC1`, for which the RP-LC retention time is 667 s.

Take `O=C(c1ccc2nc[nH]c2c1)N1CCC(c2nc(-c3ccccc3)no2)C1` (stereo not given): the RP-LC retention time is 626 s.

Compound `COC(=O)c1cc2c(=O)n(Cc3ccccc3Cl)ccc2nc1C` had an RP-LC retention time of 902 s.

As to `COc1ccc(OCc2noc(CNC(=O)C3(c4ccccc4)CCOCC3)n2)cc1`, the RP-LC retention time was determined as 802 s.

On to `Cc1ccnc(Nc2nc(CC(=O)N3CCN(S(C)(=O)=O)CC3)cs2)c1`, for which the RP-LC retention time came out at 565 s.

`COc1ccccc1C(CNC(=O)c1cc(=O)c2cc(Cl)ccc2o1)N(C)C` (stereo not given) had an RP-LC retention time of 647 s.

For `COC(=O)c1ccc(NC(=O)CSc2cc(N3CCN(c4ccc(OC)cc4)CC3)ncn2)cc1`, the RP-LC retention time turned out to be 926 s.

On to `CCOC(=O)Cc1cc(=O)oc2cc(O)cc(O)c12`, for which the RP-LC retention time came to 660 s.

`CCc1nnc2cc(N3CCN(C(=O)c4ccc(Cl)cc4)CC3)cnn12` showed an RP-LC retention time of 561 s.

`CC(C)C(=O)N1CCCCCCNC(=O)[C@@H]2CCCC[C@@H]21` yielded an RP-LC retention time of 777 s.

`COc1ccc(C2(CNC(=O)C(=O)NCC3COc4ccccc4O3)CCOCC2)cc1` (stereo not given): the RP-LC retention time was 899 s.

Consider `Cc1cc(NC(=O)c2ccc(=O)n(C)n2)no1`, for which the RP-LC retention time came out at 598 s.

The compound `CC(C)c1cc(C2CCCN2C(=O)NC2CCCC2)on1` (stereo not given) gave an RP-LC retention time of 823 s.
